US8604021B2, “Substituted arylamine compounds and methods of treatment” (priority 2005, dated 2013)
Entries after “also recorded” stand apart in the source; their conditions may differ.

Legend:
CYP2C19 = CYP2C19 (Homo sapiens, UniProt P33261); assay: CYP inhibition CYP2C19
[1] = system: more than 70 tested receptors; conditions: versus 5-HT6
[2] = Novel object recognition test; format: in vivo, C57Bl/6J mice; conditions: for Memory index, Mean: 10 min test; for Exploration time, Diff of Means 10% DMSO vs. treatment: within Familiar; for Exploration time, Diff of Means treatment vs. 10% DMSO: within Novel
Source text: Male C57Bl/6J mice from Jackson Laboratories (Bar Harbor, Me.) were used. Mice were received at 6-weeks of age. Upon receipt, mice were assigned unique identification numbers (tail marked) and were group housed in polycarbonate cages with filter tops. All animals remained housed in groups of four during the remainder of the study. All mice were acclimated to the colony room for at least two weeks prior to testing and were subsequently tested at an average age of 8 weeks of age. During the period of acclimation, mice were examined on a regular basis, handled, and weighed to assure adequate health and suitability. Mice were maintained on a 12/12 light/dark cycle with the light on at 6:00 a.m. The room temperature was maintained between 20 and 23° C. with a relative humidity maintained between 30% and 70%. Chow and water were provided ad libitum for the duration of the study. In each test, animals were randomly assigned across treatment groups.
The pH at the 10 mg/kg was around 5.5.
Rolipram, also dissolved in 10% DMSO was only administered 20 min prior to training on Day 2.
On Day 1, mice were habituated to a circular open field environment (d=18 in, h=15 cm) for one hour in cage groups of four. Each Arena was constructed out of acrylic that was painted black to block reflection. On day 2, mice were placed back into the same arena for a training trial and allowed to explore a set of two identical objects placed equidistance apart from both each other and the arena walls. Individual mice were trained for a total of 15 minutes and then placed back into their home cages. On Day 3, mice were placed back into the same arena in the presence of both the familiar (previously explored) and a novel object. The spatial positions of the familiar and novel object (i.e. left-right sides) were counterbalanced between subjects. The difference in time spent exploring each object during the test trial was used as an index of object recognition and memory retention. Each animals test trial was recorded and these tapes were observed and scored after test completion. The first 10 min of each session was scored and object recognition was computed using the formula: (Time spent with novel object*100)/(Total Time exploring both objects). Tissue Harvest
Data were analyzed by analysis of variance (ANOVA) followed by post-hoc comparisons with Fisher Tests when appropriate. An effect was considered significant if p<0.05. Data are represented as the mean and standard error to the mean.

CYP1A2 = target: T1, CYP1A2 (Homo sapiens, UniProt P05177); assay: CYP inhibition CYP1A2
T1 sequence (P05177 1-516): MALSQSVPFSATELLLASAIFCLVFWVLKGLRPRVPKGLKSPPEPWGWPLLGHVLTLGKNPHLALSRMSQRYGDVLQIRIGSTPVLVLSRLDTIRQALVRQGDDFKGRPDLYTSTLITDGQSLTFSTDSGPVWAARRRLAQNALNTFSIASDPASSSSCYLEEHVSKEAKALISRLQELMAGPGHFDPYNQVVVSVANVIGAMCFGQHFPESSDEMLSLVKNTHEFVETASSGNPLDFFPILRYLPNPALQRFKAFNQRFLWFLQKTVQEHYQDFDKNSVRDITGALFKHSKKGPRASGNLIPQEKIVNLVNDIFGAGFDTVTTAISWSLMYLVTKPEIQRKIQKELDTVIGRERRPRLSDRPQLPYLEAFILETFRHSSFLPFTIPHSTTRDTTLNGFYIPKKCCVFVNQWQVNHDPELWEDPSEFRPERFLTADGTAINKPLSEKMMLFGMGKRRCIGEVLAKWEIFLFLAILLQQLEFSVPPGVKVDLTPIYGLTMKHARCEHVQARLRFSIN

D1 = D1 (Homo sapiens, UniProt P21728); assay: Compound Binding Profiles: D1; conditions: read-out: D1 binding class
D1, sequence (P21728 whole entry): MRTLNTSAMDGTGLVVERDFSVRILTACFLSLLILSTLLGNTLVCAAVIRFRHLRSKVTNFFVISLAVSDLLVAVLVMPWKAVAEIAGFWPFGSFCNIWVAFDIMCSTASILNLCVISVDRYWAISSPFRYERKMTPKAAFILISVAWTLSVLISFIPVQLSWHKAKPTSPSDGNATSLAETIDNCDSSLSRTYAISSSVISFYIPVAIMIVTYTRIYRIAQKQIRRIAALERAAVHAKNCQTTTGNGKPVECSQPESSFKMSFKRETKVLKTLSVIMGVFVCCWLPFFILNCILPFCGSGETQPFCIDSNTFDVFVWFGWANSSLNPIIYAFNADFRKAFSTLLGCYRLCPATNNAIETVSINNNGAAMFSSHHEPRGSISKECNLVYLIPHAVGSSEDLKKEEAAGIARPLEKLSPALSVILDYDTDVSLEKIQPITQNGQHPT

CYP2C19, sequence (P33261 whole entry): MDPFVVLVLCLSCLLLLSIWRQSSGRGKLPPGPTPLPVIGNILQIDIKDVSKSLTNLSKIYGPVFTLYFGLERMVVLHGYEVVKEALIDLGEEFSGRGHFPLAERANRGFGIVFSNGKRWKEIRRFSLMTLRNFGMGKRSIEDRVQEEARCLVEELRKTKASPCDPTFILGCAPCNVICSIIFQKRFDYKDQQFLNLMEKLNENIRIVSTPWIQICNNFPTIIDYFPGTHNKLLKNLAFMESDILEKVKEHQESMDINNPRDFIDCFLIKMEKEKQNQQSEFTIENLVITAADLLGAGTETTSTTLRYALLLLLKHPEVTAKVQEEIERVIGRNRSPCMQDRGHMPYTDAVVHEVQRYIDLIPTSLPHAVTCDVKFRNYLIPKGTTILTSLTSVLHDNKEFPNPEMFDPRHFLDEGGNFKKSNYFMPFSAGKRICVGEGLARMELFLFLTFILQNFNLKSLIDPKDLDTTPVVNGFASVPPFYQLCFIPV

With COc1cc(Cl)cc(C(C)Nc2cc(N3CCNCC3)ccc2S(C)(=O)=O)c1OC.Cl (stereo not drawn) [Compound A, [1-(5-Chloro-2,3-dimethoxy-phenyl)-ethyl]-(2-methanesulfonyl-5-piperazin-1-yl-phenyl)-amine hydrochloride] as the molecule, how does the IC50 (CYP2C19) read?
Its IC50 is over 7.5 µM.

What about the “safety margin (selectivity) to more than 70 tested receptors” value [1] of the same molecule?
The value was over 100 fold.

And the “stability (HLM)” value (Stability in HLM)?
The value was over 90 min.

And the “Exploration time, Diff of Means Novel vs. Familiar” value ([2]; 1 mg/kg)?
Its value is 14.456.

And the “Memory index, Mean Diff. Vehicle versus treatment (Fisher's PLSD)” value ([2]; 1 mg/kg)?
Its value is −4.573.

What about the “Memory index, Mean” value ([2]; 1 mg/kg i.p.) of the same molecule?
The value was 61.179.

And the “Exploration time, Mean” value ([2]; 1 mg/kg, Familiar Object)?
Its value is 24.810.

What about the “Exploration time, Mean” value ([2]; 1 mg/kg, Novel Object) of the same molecule?
The value was 39.266.

What about the “Exploration time, Diff of Means Novel vs. Familiar” value ([2]; 3 mg/kg) of the same molecule?
Its value is 23.871.

And the “effect on recognition index / object recognition compared to vehicle” value ([2]; 3 mg/kg and 10 mg/kg, hydrochloride)?
Its value is “significantly increased the recognition index; also recorded: significant, positive effect on object recognition”.

And the “Memory index, Mean” value ([2]; 3 mg/kg i.p.)?
Its value is 68.946.

What about the “Exploration time, Mean” value ([2]; 3 mg/kg, Familiar Object) of the same molecule?
Its value is 17.506.

And the “Exploration time, Mean” value ([2]; 3 mg/kg, Novel Object)?
The value was 41.377.

And the “Exploration time, Diff of Means Novel vs. Familiar” value ([2]; 10 mg/kg)?
The value was 18.878.

What about the “Memory index, Mean Diff. Vehicle versus treatment (Fisher's PLSD)” value ([2]; 10 mg/kg) of the same molecule?
The value was −9.784.

What about the “Memory index, Mean” value ([2]; 10 mg/kg i.p.) of the same molecule?
The value was 66.391.

And the “Exploration time, Mean” value ([2]; 10 mg/kg, Familiar Object)?
Its value is 16.153.

What about the “Exploration time, Mean” value ([2]; 10 mg/kg, Novel Object) of the same molecule?
The value was 35.031.

What about the “time exploring novel object versus familiar object” value ([2]; 1, 3, and 10 mg/kg) of the same molecule?
The value was “spent more time exploring novel object than the familiar object”.

What about the “Exploration time, Diff of Means 10% DMSO vs. treatment” value ([2]; 1 mg/kg) of the same molecule?
Its value is 0.831.

What about the “Exploration time, Diff of Means 10% DMSO vs. treatment” value ([2]; 3 mg/kg) of the same molecule?
The value was 6.473.

And the “Exploration time, Diff of Means 10% DMSO vs. treatment” value ([2]; 10 mg/kg)?
Its value is 7.826.

What about the “Exploration time, Diff of Means treatment vs. 10% DMSO” value ([2]; 1 mg/kg) of the same molecule?
The value was 8.282.

What about the “Exploration time, Diff of Means treatment vs. 10% DMSO” value ([2]; 3 mg/kg) of the same molecule?
Its value is 10.393.

And the “Exploration time, Diff of Means treatment vs. 10% DMSO” value ([2]; 10 mg/kg)?
Its value is 4.047.

And the IC50 (CYP1A2)?
Its IC50 is over 7.5 µM.

And the Ki (D1)?
The Ki was 0.1 to 1 µM.
